Measurements from patent US20200010910A1, “Cytotoxic Chemotherapy-Based Predictive Assays for Acute Myeloid Leukemia” (The Regents of The University of California, priority 2017, published 2020).

Experiments:
Assay in all cases: carboplatin-DNA monoadducts by AMS
Format in all cases: cell-based, human
H727 = tested on: H727
Description: (§1) NSCLC cell lines were cultured to >90% confluence, dosed with [^14C]carboplatin, and subjected to DNA isolation and AMS analysis. 60 mm dishes were seeded at a density of 1×10^6 cells/dish and allowed to attach overnight in a 37° C. humidified atmosphere containing 5% CO2. At hour 0, cells were dosed with 1 μM (relevant microdose concentration) or 100 μM carboplatin (therapeutically relevant concentration), each comprising 0.3 μM [^14C]carboplatin (50,000 dpm/ml). Cells were incubated with [^14C]carboplatin for 4 h before washing and cultured with carboplatin-free medium to mimic the in vivo carboplatin half-life (1.3-6 hours) in patients. DNA was harvested from the cell lines at hours 0, 2, 4, 8 and 24 hours after initial dosing. Ten micrograms of DNA per sample was converted to graphite and measured by AMS for ^14C/total C quantification. Triplicate sets of AMS experiments were performed for each cell line and time point. The 14C/total C ratio was converted to 14C atoms per DNA base-pair according to the algorithm described herein to provide values of carboplatin-DNA monoadducts per 10^8 nucleotides. The data was plotted as carboplatin-DNA monoadducts per 10^8 nucleotide (nt) vs time (FIGS. 8A and 8B). There was a time-dependent increase in the carboplatin-DNA monoadduct concentration during the first 4 hours of incubation with therapeutic or microdosing carboplatin (FIGS. 8A and 8B). After the cells were washed and incubated with carboplatin-free media, the monoadduct levels decreased over a period of several hours. […] Carboplatin-DNA monoadduct levels in the microdosing group had essentially the same kinetics as the therapeutic group, but with 100-fold lower adduct levels at each time point (FIGS. 8A and 8B).

A549 = tested on: A549
Description: as §1

HCC827 = tested on: HCC827
Description: as §1

H1975 = tested on: H1975
Description: as §1

H460 = tested on: H460
Description: as §1

H23 = tested on: H23
Description: as §1

[1] = 1 μM carboplatin 4 h, up to 24 hours
[2] = 1 μM carboplatin 4 h then drug-free
[3] = 100 μM carboplatin 4 h, up to 24 hours
[4] = 100 μM carboplatin 4 h then drug-free

N.N.O=C([O-])C1(C(=O)[O-])CCC1.[Pt+2] [carboplatin]
Adduct level-4 hr-microdose (H727; 1 μM carboplatin): 6.23 ± 2.73 /10^8 nt
AUC of adduct-microdose (H727; [1]): 61.7 ± 9.0 hr-adducts/10^8 nt
Adduct level-24 hr Microdose (H727; [2]): 1.3 ± 0.1 /10^8 nt
Adduct level-4 hr-therapeutic (H727; 100 μM carboplatin): 684 ± 223.5 /10^8 nt
AUC of adduct-therapeutic (H727; [3]): 6111 ± 661 hr-adducts/10^8 nt
Adduct level-24 hr-therapeutic (H727; [4]): 174 ± 5.6 /10^8 nt
Adduct level-4 hr-microdose (A549; 1 μM carboplatin): 2.0 ± 0.4 /10^8 nt
AUC of adduct-microdose (A549; [1]): 31.5 ± 1.6 hr-adducts/10^8 nt
Adduct level-24 hr Microdose (A549; [2]): 0.9 ± 0.0 /10^8 nt
Adduct level-4 hr-therapeutic (A549; 100 μM carboplatin): 163 ± 74.4 /10^8 nt
AUC of adduct-therapeutic (A549; [3]): 2331 ± 257 hr-adducts/10^8 nt
Adduct level-24 hr-therapeutic (A549; [4]): 74 ± 10.4 /10^8 nt
Adduct level-4 hr-microdose (HCC827; 1 μM carboplatin): 2.5 ± 0.0 /10^8 nt
AUC of adduct-microdose (HCC827; [1]): 51.7 ± 2.4 hr-adducts/10^8 nt
Adduct level-24 hr Microdose (HCC827; [2]): 1.8 ± 0.3 /10^8 nt
Adduct level-4 hr-therapeutic (HCC827; 100 μM carboplatin): 295 ± 58.8 /10^8 nt
AUC of adduct-therapeutic (HCC827; [3]): 4941 ± 739 hr-adducts/10^8 nt
Adduct level-24 hr-therapeutic (HCC827; [4]): 162 ± 15.4 /10^8 nt
Adduct level-4 hr-microdose (H1975; 1 μM carboplatin): 3.3 ± 0.5 /10^8 nt
AUC of adduct-microdose (H1975; [1]): 47.0 ± 4.8 hr-adducts/10^8 nt
Adduct level-24 hr Microdose (H1975; [2]): 1.1 ± 0.6 /10^8 nt
Adduct level-4 hr-therapeutic (H1975; 100 μM carboplatin): 322 ± 24.1 /10^8 nt
AUC of adduct-therapeutic (H1975; [3]): 4478 ± 353 hr-adducts/10^8 nt
Adduct level-24 hr-therapeutic (H1975; [4]): 108 ± 33.3 /10^8 nt
Adduct level-4 hr-microdose (H460; 1 μM carboplatin): 6.8 ± 0.2 /10^8 nt
AUC of adduct-microdose (H460; [1]): 85.6 ± 8.4 hr-adducts/10^8 nt
Adduct level-24 hr Microdose (H460; [2]): 1.0 ± 0.4 /10^8 nt
Adduct level-4 hr-therapeutic (H460; 100 μM carboplatin): 885 ± 36.3 /10^8 nt
AUC of adduct-therapeutic (H460; [3]): 9488 ± 902 hr-adducts/10^8 nt
Adduct level-24 hr-therapeutic (H460; [4]): 177 ± 11.5 /10^8 nt
Adduct level-4 hr-microdose (H23; 1 μM carboplatin): 7.4 ± 1.4 /10^8 nt
AUC of adduct-microdose (H23; [1]): 136.6 ± 9.0 hr-adducts/10^8 nt
Adduct level-24 hr Microdose (H23; [2]): 5.4 ± 0.1 /10^8 nt
Adduct level-4 hr-therapeutic (H23; 100 μM carboplatin): 825 ± 5.8 /10^8 nt
AUC of adduct-therapeutic (H23; [3]): 13255 ± 835 hr-adducts/10^8 nt
Adduct level-24 hr-therapeutic (H23; [4]): 414 ± 27.1 /10^8 nt
